Tests used:
[1] = test system: rats; conditions: rat, in vivo; cited from earlier work
[2] = test system: kidney tissue gene expression; conditions: rat, in vivo
[3] = test system: patients; conditions: human, in vivo; cited from earlier work
[4] = test system: rats; conditions: cited from earlier work
[5] = test system: renal GST-alpha subunit, cytochrome P4502E1; conditions: rat, in vivo; cited from earlier work

For ClC(Cl)(Cl)Cl [carbon tetrachloride, Carbon tetrachloride], the glutathione peroxidase activity [1] is given as “significant decrease” and the “kidney superoxide dismutase and catalase activities” value [1] is given as “Significant increases”.
With ClC(Cl)Cl [chloroform, Chloroform (CHCl3)] the “Tox Group Mean, GLGC Identifier 1143” value [2] was 131.83, the “Tox Group Mean, GLGC Identifier 1409” value [2] was 298.20 and the “Tox Group Mean, GLGC Identifier 1509” value [2] was 431.65. For the same compound, the “Tox Group Mean, GLGC Identifier 1581” value [2] was 87.66, the “Tox Group Mean, GLGC Identifier 1644” value [2] was 418.83 and the “Tox Group Mean, GLGC Identifier 1652” value [2] was 476.16. The “Tox Group Mean, GLGC Identifier 1653” value [2] was 686.13, the “Tox Group Mean, GLGC Identifier 1877” value [2] was 444.75 and the “Tox Group Mean, GLGC Identifier 1929” value [2] was 536.97. The “Tox Group Mean, GLGC Identifier 1949” value [2] was 57.75, the “Tox Group Mean, GLGC Identifier 2059” value [2] was 219.06 and the “Tox Group Mean, GLGC Identifier 2439” value [2] was 102.63. The “Tox Group Mean, GLGC Identifier 2912” value [2] was 1436.37, the “Tox Group Mean, GLGC Identifier 3015” value [2] was 2837.91 and the “Tox Group Mean, GLGC Identifier 3091” value [2] was 421.64. The “Tox Group Mean, GLGC Identifier 3803” value [2] was 975.63, the “Tox Group Mean, GLGC Identifier 3875” value [2] was 252.35 and the “Tox Group Mean, GLGC Identifier 4178” value [2] was 444.39. The “Tox Group Mean, GLGC Identifier 4462” value [2] was 414.41, the “Tox Group Mean, GLGC Identifier 4463” value [2] was 43.16 and the “Tox Group Mean, GLGC Identifier 4473” value [2] was 95.76. The “Tox Group Mean, GLGC Identifier 4933” value [2] was 743.88, the “Tox Group Mean, GLGC Identifier 5369” value [2] was 274.28 and the “Tox Group Mean, GLGC Identifier 6127” value [2] was 41.36. The “Tox Group Mean, GLGC Identifier 6343” value [2] was 46.79, the “Tox Group Mean, GLGC Identifier 6641” value [2] was 233.86 and the “Tox Group Mean, GLGC Identifier 7216” value [2] was 123.29. The “Tox Group Mean, GLGC Identifier 7299” value [2] was 334.53, the “Tox Group Mean, GLGC Identifier 7505” value [2] was 274.29 and the “Tox Group Mean, GLGC Identifier 7622” value [2] was 88.74. The “Tox Group Mean, GLGC Identifier 7634” value [2] was 538.91, the “Tox Group Mean, GLGC Identifier 7936” value [2] was 93.98 and the “Tox Group Mean, GLGC Identifier 8721” value [2] was 73.87. The “Tox Group Mean, GLGC Identifier 8829” value [2] was 505.66, the “Tox Group Mean, GLGC Identifier 8927” value [2] was 508.53 and the “Tox Group Mean, GLGC Identifier 8946” value [2] was 112.12. The “Tox Group Mean, GLGC Identifier 9116” value [2] was 269.31, the “Tox Group Mean, GLGC Identifier 9176” value [2] was 288.61 and the “Tox Group Mean, GLGC Identifier 9191” value [2] was 277.28. For the same compound, the “Tox Group Mean, GLGC Identifier 10130” value [2] was 117.70, the “Tox Group Mean, GLGC Identifier 11761” value [2] was 49.48 and the “Tox Group Mean, GLGC Identifier 11843” value [2] was 61.43. For the same compound, the “Tox Group Mean, GLGC Identifier 11953” value [2] was 1079.47, the “Tox Group Mean, GLGC Identifier 12129” value [2] was 245.65 and the “Tox Group Mean, GLGC Identifier 13610” value [2] was 226.14. For the same compound, the “Tox Group Mean, GLGC Identifier 13646” value [2] was 1169.38, the “Tox Group Mean, GLGC Identifier 13727” value [2] was 35.36 and the “Tox Group Mean, GLGC Identifier 14267” value [2] was 1171.51. For the same compound, the “Tox Group Mean, GLGC Identifier 15072” value [2] was 42.04, the “Tox Group Mean, GLGC Identifier 15836” value [2] was 121.07 and the “Tox Group Mean, GLGC Identifier 15964” value [2] was 583.51. For the same compound, the “Tox Group Mean, GLGC Identifier 16468” value [2] was 831.97, the “Tox Group Mean, GLGC Identifier 16469” value [2] was 991.10 and the “Tox Group Mean, GLGC Identifier 16756” value [2] was 361.18. For the same compound, the “Tox Group Mean, GLGC Identifier 16948” value [2] was 145.85, the “Tox Group Mean, GLGC Identifier 16958” value [2] was 61.46 and the “Tox Group Mean, GLGC Identifier 17361” value [2] was 50.93. For the same compound, the “Tox Group Mean, GLGC Identifier 17516” value [2] was 500.55, the “Tox Group Mean, GLGC Identifier 17524” value [2] was 799.10 and the “Tox Group Mean, GLGC Identifier 17541” value [2] was 1464.81. For the same compound, the “Tox Group Mean, GLGC Identifier 18509” value [2] was 311.54, the “Tox Group Mean, GLGC Identifier 19110” value [2] was 84.32 and the “Tox Group Mean, GLGC Identifier 19144” value [2] was 36.63. For the same compound, the “Tox Group Mean, GLGC Identifier 19377” value [2] was 155.74, the “Tox Group Mean, GLGC Identifier 19679” value [2] was 440.67 and the “Tox Group Mean, GLGC Identifier 19822” value [2] was 994.53. For the same compound, the “Tox Group Mean, GLGC Identifier 20000” value [2] was 93.69, the “Tox Group Mean, GLGC Identifier 20582” value [2] was 347.72 and the “Tox Group Mean, GLGC Identifier 20708” value [2] was 80.85. For the same compound, the “Tox Group Mean, GLGC Identifier 20725” value [2] was 621.86, the “Tox Group Mean, GLGC Identifier 20741” value [2] was 236.26 and the “Tox Group Mean, GLGC Identifier 21025” value [2] was 233.83. For the same compound, the “Tox Group Mean, GLGC Identifier 21060” value [2] was 133.69, the “Tox Group Mean, GLGC Identifier 21061” value [2] was 86.99 and the “Tox Group Mean, GLGC Identifier 21088” value [2] was 56.92. For the same compound, the “Tox Group Mean, GLGC Identifier 21562” value [2] was 265.87, the “Tox Group Mean, GLGC Identifier 22490” value [2] was 811.57 and the “Tox Group Mean, GLGC Identifier 22537” value [2] was 145.19. The “Tox Group Mean, GLGC Identifier 22648” value [2] was 313.31, the “Tox Group Mean, GLGC Identifier 22783” value [2] was 473.86 and the “Tox Group Mean, GLGC Identifier 22855” value [2] was 373.13. The “Tox Group Mean, GLGC Identifier 22985” value [2] was 83.55, the “Tox Group Mean, GLGC Identifier 23033” value [2] was 431.39 and the “Tox Group Mean, GLGC Identifier 23115” value [2] was 278.57. The “Tox Group Mean, GLGC Identifier 23282” value [2] was 425.15, the “Tox Group Mean, GLGC Identifier 23718” value [2] was 65.41 and the “Tox Group Mean, GLGC Identifier 24234” value [2] was 408.25. The “Tox Group Mean, GLGC Identifier 24437” value [2] was 56.38, the “Tox Group Mean, GLGC Identifier 25168” value [2] was 32.68 and the “Tox Group Mean, GLGC Identifier 25643” value [2] was 187.37. The “Tox Group Mean, GLGC Identifier 25777” value [2] was 1173.74, the “Tox Group Mean, GLGC Identifier 25862” value [2] was 38.61 and the “Tox Group Mean, GLGC Identifier 25921” value [2] was 47.30. For the same compound, the “Tox Group Mean, GLGC Identifier 26183” value [2] was 64.68.
For Nc1ccn(C[C@@H](CO)OCP(=O)(O)O)c(=O)n1 [cidofovir, Cidofovir], the “patients with dose-dependent asymptomatic proteinuria” value [3] is listed as “Approximately 40%” and the “patients with elevated serum creatinine levels” value [3] is listed as 25%.
In the case of NNc1nncc2ccccc12 [hydralazine, Hydralazine], the kidney copper concentrations ([4]; compared to control groups) is listed as “increased”, the “manganese and zinc concentrations” value ([4]; rat, in vivo) is listed as “not effected” and the “renal GST-alpha subunit expression” value [5] is listed as “increase”. For the same compound, the “renal cytochrome P4502E1 expression” value [5] was “did not alter”.

— patent US20070093969A1, “Molecular nephrotoxicology modeling” (priority 2002, published 2007)
